ChEMBL document CHEMBL4385672, “Design, synthesis and biological evaluation of 2-(3,4-dimethoxyphenyl)-6 (1,2,3,6-tetrahydropyridin-4-yl)imidazo[1,2-a]pyridine analogues as antiproliferative agents” (Bioorg Med Chem Lett, 2019)
Activity calls are given as the source filed them.

Key:
Type in all cases: functional, cell-based
[1] = tested on: B16-F10; experiment: Antiproliferative activity against mouse B16F10 cells at 10 to 100 uM incubated for 48 hrs by MTT assay
[2] = tested on: HeLa; experiment: Antiproliferative activity against human HeLa cells at 10 to 100 uM incubated for 48 hrs by MTT assay
[3] = tested on: A549; experiment: Antiproliferative activity against human A549 cells at 10 to 100 uM incubated for 48 hrs by MTT assay

Measured: Activity

COc1ccc(-c2cn3cc(C4=CCN(S(=O)(=O)C(F)(F)F)CC4)ccc3n2)cc1OC
active: [1] | [2] | [3]

COc1ccc(-c2cn3cc(C4=CCN(S(=O)(=O)CC(C)C)CC4)ccc3n2)cc1OC
active: [1] | [2] | [3]

COc1ccc(-c2cn3cc(C4=CCN(S(=O)(=O)c5ccc(C)cc5)CC4)ccc3n2)cc1OC
active: [1] | [2] | [3]

COc1ccc(-c2cn3cc(C4=CCN(C(=O)c5cccc(F)c5)CC4)ccc3n2)cc1OC
active: [1] | [2] | [3]

COc1ccc(-c2cn3cc(C4=CCN(C(=O)c5ccccn5)CC4)ccc3n2)cc1OC
active: [1] | [2] | [3]

COc1ccc(-c2cn3cc(C4=CCN(S(=O)(=O)c5ccccc5[N+](=O)[O-])CC4)ccc3n2)cc1OC
active: [1] | [2] | [3]

COc1ccc(-c2cn3cc(C4=CCNCC4)ccc3n2)cc1OC
active: [1] | [2] | [3]

COc1ccc(-c2cn3cc(C4=CCN(S(=O)(=O)c5ccc(Cl)cc5)CC4)ccc3n2)cc1OC
active: [1] | [2] | [3]

COc1ccc(-c2cn3cc(C4=CCN(S(=O)(=O)c5ccc(C(C)(C)C)cc5)CC4)ccc3n2)cc1OC
active: [1] | [2] | [3]

COc1ccc(-c2cn3cc(C4=CCN(S(=O)(=O)c5ccc(F)cc5)CC4)ccc3n2)cc1OC
active: [1] | [2] | [3]

COc1ccc(-c2cn3cc(C4=CCN(C(=O)c5ccc(F)cc5)CC4)ccc3n2)cc1OC
active: [1] | [2] | [3]

COc1ccc(-c2cn3cc(C4=CCN(S(=O)(=O)c5ccc(C(C)=O)cc5)CC4)ccc3n2)cc1OC
active: [1] | [2] | [3]

COc1ccc(-c2cn3cc(C4=CCN(S(=O)(=O)c5ccc(Cl)s5)CC4)ccc3n2)cc1OC
active: [1] | [2] | [3]

COc1ccc(-c2cn3cc(C4=CCN(C(=O)c5ccco5)CC4)ccc3n2)cc1OC
active: [1] | [2] | [3]

COc1ccc(-c2cn3cc(C4=CCN(S(=O)(=O)c5ccc(C(F)(F)F)cc5)CC4)ccc3n2)cc1OC
active: [1] | [2] | [3]

C=CC(=O)N1CC=C(c2ccc3nc(-c4ccc(OC)c(OC)c4)cn3c2)CC1
active: [1] | [2] | [3]

COc1ccc(-c2cn3cc(C4=CCN(C(=O)c5ccccc5F)CC4)ccc3n2)cc1OC
active: [1] | [2] | [3]

COc1ccc(-c2cn3cc(C4=CCN(C(=O)COCc5ccccc5)CC4)ccc3n2)cc1OC
active: [1] | [2] | [3]
